Results as given in article PMC6718736, “Validation of in vitro methods for human cytochrome P450 enzyme induction: Outcome of a multi-laboratory study” (Toxicology in Vitro, 2019).
Read-outs that look alike come from different tables or passages of the source.

How the values were obtained:
CYP1A2 [1] = assay: CYP1A2 enzyme induction assay in cryopreserved HepaRG cells (phenacetin probe, LC/MS); format: in vitro ADME, human; details: for Prediction in vivo inducer: Cmax/F2 >0.5 criterion; for Assigned classification CYP1A2: HepaRG; as to Assigned classification CYP1A2: key: 1=Positive=inducer; 0=Negative=non-inducer
CYP2B6 [2] = assay: CYP2B6 enzyme induction assay in cryopreserved HepaRG cells (bupropion probe, LC/MS); format: in vitro ADME, human; details: for Prediction in vivo inducer: Cmax/F2 >0.5 criterion; for Assigned classification CYP2B6: HepaRG; as to Assigned classification CYP2B6: key: 1=Positive=inducer; 0=Negative=non-inducer
CYP3A4 [3] = assay: CYP3A4 enzyme induction assay in cryopreserved HepaRG cells (midazolam probe, LC/MS); format: in vitro ADME, human; details: for Assigned classification CYP3A4: HepaRG; as to Assigned classification CYP3A4: key: 1=Positive=inducer; 0=Negative=non-inducer
CYP1A2 [4] = assay: CYP1A2 enzyme induction assay in cryopreserved primary human hepatocytes (PHH); format: in vitro ADME; details: for Prediction in vivo inducer: Cmax/F2 >0.5 criterion; for Assigned classification CYP1A2: PHH;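 as to Assigned classification CYP1A2: code 1 means positive inducer and 0 means non-inducer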
CYP2B6 [5] = assay: CYP2B6 enzyme induction assay in cryopreserved primary human hepatocytes (PHH); format: in vitro ADME; details: for Assigned classification CYP2B6: PHH;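 as to Assigned classification CYP2B6: code 1 means positive inducer and 0 means non-inducer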
[6] = cited from earlier work
CYP = CYP isoforms induced; ref Abadie et al. (2009), Richert et al. (2010), Preissner et al. (2010), Hoffmann et al. (2014); cited from earlier work
CYP3A4 [7] = details: cited from earlier work
CYP3A4 [8] = assay: CYP3A4 enzyme induction assay in cryopreserved primary human hepatocytes (PHH); details: for Assigned classification CYP3A4: PHH

Structure (SMILES): COc1ccccc1Oc1c(NS(=O)(=O)c2ccc(C(C)(C)C)cc2)nc(-c2ncccn2)nc1OCCO [Bosentan hydrate]
- Prediction in vivo inducer (CYP1A2 [1]; CYP1A2, HepaRG cells, listed as Bosentan): Yes
- Prediction in vivo inducer (CYP1A2 [1]; CYP1A2, HepaRG cells, listed as bosentan): CYP1A2 induction would be expected
- F2 (CYP1A2 [1]; CYP1A2, HepaRG cells, in vitro concentration producing 2-fold induction): 2.60 to 7.80 µM
- Induction in vitro (CYP1A2 [1]; CYP1A2, HepaRG cells, positive in one batch in each of the three laboratories): Yes
- Assigned classification CYP1A2 (CYP1A2 [1]; Lab 1, batch 20): 1
- Assigned classification CYP1A2 (CYP1A2 [1]; Lab 1, batch 35): 1
- Assigned classification CYP1A2 (CYP1A2 [1]; Lab 1, batch 36): 1
- Assigned classification CYP1A2 (CYP1A2 [1]; Lab 2, batch 20): 1
- Assigned classification CYP1A2 (CYP1A2 [1]; Lab 2, batch 35): 1
- Assigned classification CYP1A2 (CYP1A2 [1]; Lab 2, batch 36): 1
- Assigned classification CYP1A2 (CYP1A2 [1]; Lab 3, batch 20): 1
- Assigned classification CYP1A2 (CYP1A2 [1]; Lab 3, batch 35): 1
- Assigned classification CYP1A2 (CYP1A2 [1]; Lab 3, batch 36): 0
- Prediction in vivo inducer (CYP2B6 [2]; CYP2B6, HepaRG cells, listed as Bosentan): Yes
- Prediction in vivo inducer (CYP2B6 [2]; CYP2B6, HepaRG cells, listed as bosentan): predicted as positive inducers
- F2 (CYP2B6 [2]; CYP2B6, HepaRG cells, in vitro concentration producing 2-fold induction): 2.60 to 7.80 µM
- Induction in vitro (CYP2B6 [2]; CYP2B6, HepaRG cells, positive in one batch in each of the three laboratories): Yes
- Assigned classification CYP2B6 (CYP2B6 [2]; Lab 1, batch 20): 1
- Assigned classification CYP2B6 (CYP2B6 [2]; Lab 1, batch 35): 1
- Assigned classification CYP2B6 (CYP2B6 [2]; Lab 1, batch 36): 0
- Assigned classification CYP2B6 (CYP2B6 [2]; Lab 2, batch 20): 1
- Assigned classification CYP2B6 (CYP2B6 [2]; Lab 2, batch 35): 0
- Assigned classification CYP2B6 (CYP2B6 [2]; Lab 2, batch 36): 0
- Assigned classification CYP2B6 (CYP2B6 [2]; Lab 3, batch 20): 0
- Assigned classification CYP2B6 (CYP2B6 [2]; Lab 3, batch 35): 1
- Assigned classification CYP2B6 (CYP2B6 [2]; Lab 3, batch 36): 0
- F2 (CYP3A4 [3]; CYP3A4, HepaRG cells): 0.29 µM
- Induction in vitro (CYP3A4 [3]; CYP3A4, HepaRG cells): Yes
- Prediction in vivo inducer (CYP3A4 [3]; CYP3A4, HepaRG cells): Yes
- Assigned classification CYP3A4 (CYP3A4 [3]; Lab 1, batch 20): 1
- Assigned classification CYP3A4 (CYP3A4 [3]; Lab 1, batch 35): 1
- Assigned classification CYP3A4 (CYP3A4 [3]; Lab 1, batch 36): 1
- Assigned classification CYP3A4 (CYP3A4 [3]; Lab 2, batch 20): 1
- Assigned classification CYP3A4 (CYP3A4 [3]; Lab 2, batch 35): 1
- Assigned classification CYP3A4 (CYP3A4 [3]; Lab 2, batch 36): 1
- Assigned classification CYP3A4 (CYP3A4 [3]; Lab 3, batch 20): 1
- Assigned classification CYP3A4 (CYP3A4 [3]; Lab 3, batch 35): 1
- Assigned classification CYP3A4 (CYP3A4 [3]; Lab 3, batch 36): 1
- Prediction in vivo inducer (CYP1A2 [4]; CYP1A2, PHH, listed as Bosentan): No
- Prediction in vivo inducer (CYP1A2 [4]; CYP1A2, PHH, listed as bosentan): non-inducers
- Induction in vitro (CYP1A2 [4]; CYP1A2, PHH, positive in one donor in each of the three laboratories): No
- Assigned classification CYP1A2 (CYP1A2 [4]; Lab 1, batch 0 6 A): 0
- Assigned classification CYP1A2 (CYP1A2 [4]; Lab 1, batch 4 0 8): 0
- Assigned classification CYP1A2 (CYP1A2 [4]; Lab 1, batch 8 0 8): 0
- Assigned classification CYP1A2 (CYP1A2 [4]; Lab 2, batch 0 6 A): 0
- Assigned classification CYP1A2 (CYP1A2 [4]; Lab 2, batch 4 0 8): 0
- Assigned classification CYP1A2 (CYP1A2 [4]; Lab 2, batch 8 0 8): 1
- Assigned classification CYP1A2 (CYP1A2 [4]; Lab 3, batch 0 6 A): 1
- Assigned classification CYP1A2 (CYP1A2 [4]; Lab 3, batch 4 0 8): 0
- Assigned classification CYP1A2 (CYP1A2 [4]; Lab 3, batch 8 0 8): 0
- F2 (CYP2B6 [5]; CYP2B6, PHH): 5.85 µM
- Induction in vitro (CYP2B6 [5]; CYP2B6, PHH): Yes
- Prediction in vivo inducer (CYP2B6 [5]; CYP2B6, PHH): Yes
- Assigned classification CYP2B6 (CYP2B6 [5]; Lab 1, batch 0 6 A): 1
- Assigned classification CYP2B6 (CYP2B6 [5]; Lab 1, batch 4 0 8): 1
- Assigned classification CYP2B6 (CYP2B6 [5]; Lab 1, batch 8 0 8): 1
- Assigned classification CYP2B6 (CYP2B6 [5]; Lab 2, batch 0 6 A): 1
- Assigned classification CYP2B6 (CYP2B6 [5]; Lab 2, batch 4 0 8): 0
- Assigned classification CYP2B6 (CYP2B6 [5]; Lab 2, batch 8 0 8): 1
- Assigned classification CYP2B6 (CYP2B6 [5]; Lab 3, batch 0 6 A): 1
- Assigned classification CYP2B6 (CYP2B6 [5]; Lab 3, batch 4 0 8): 1
- Assigned classification CYP2B6 (CYP2B6 [5]; Lab 3, batch 8 0 8): 1
- Cmax ([6]; human in vivo plasma concentration, normal dose): 5.8 µM
- Cmax ([6]; human in vivo, normal dose (Table 10)): 5.8 µM
- CYP induction in vitro (human hepatocytes) (CYP): CYP3A4
- Induction in vivo (CYP3A4 [7]; CYP3A4, human in vivo reference classification (Table 11)): Yes
- CYP induction in vivo literature reference: CYP3A4 (CYP3A4 [7]; human in vivo, CYP named without remark = induced, ref references in the cell, Washington University database, Hoffmann et al. (2014), Pelkonen et al. (2008), Hukkanen et al. (2012)): CYP1A2 NO studies CYP2B6 NO studies CYP 3A4 ([Weber et al., 1999a], [Weber et al., 1999b]; [van Giersbergen et al., 2002a], [van Giersbergen et al., 2002b]; Dingemanse and van Giersbergen, 2004)
- F2 (CYP3A4 [8]; CYP3A4, PHH): 0.65 to 1.95 µM
- Induction in vitro (CYP3A4 [8]; CYP3A4, PHH): Yes
- Prediction in vivo inducer (CYP3A4 [8]; CYP3A4, PHH): Yes
- Assigned classification CYP3A4 (CYP3A4 [8]; Lab 1, batch 0 6 A): 1
- Assigned classification CYP3A4 (CYP3A4 [8]; Lab 1, batch 4 0 8): 1
- Assigned classification CYP3A4 (CYP3A4 [8]; Lab 1, batch 8 0 8): 1
- Assigned classification CYP3A4 (CYP3A4 [8]; Lab 2, batch 0 6 A): 1
- Assigned classification CYP3A4 (CYP3A4 [8]; Lab 2, batch 4 0 8): 1
- Assigned classification CYP3A4 (CYP3A4 [8]; Lab 2, batch 8 0 8): 1
- Assigned classification CYP3A4 (CYP3A4 [8]; Lab 3, batch 0 6 A): 1
- Assigned classification CYP3A4 (CYP3A4 [8]; Lab 3, batch 4 0 8): 1
- Assigned classification CYP3A4 (CYP3A4 [8]; Lab 3, batch 8 0 8): 1
